In ChEMBL document CHEMBL3526080, “In vitro inhibition of the bile salt export pump correlates with risk of cholestatic drug-induced liver injury in humans” (Drug Metab Dispos, 2012):

Tests used:
Bile salt export pump [1] = molecular target: Bile salt export pump (Rattus norvegicus, UniProt O70127); assay: Inhibition of Sprague-Dawley rat Bsep expressed in plasma membrane vesicles of Sf21 cells assessed as inhibition of ATP-dependent [3H]taurocholate uptake; format: cell membranes
Bile salt export pump [2] = molecular target: Bile salt export pump (Homo sapiens, UniProt O95342); assay: Inhibition of human BSEP expressed in plasma membrane vesicles of Sf21 cells assessed as inhibition of ATP-dependent [3H]taurocholate uptake; format: cell membranes
Sequence of Bile salt export pump (Homo sapiens, UniProt O95342) (O95342 whole entry): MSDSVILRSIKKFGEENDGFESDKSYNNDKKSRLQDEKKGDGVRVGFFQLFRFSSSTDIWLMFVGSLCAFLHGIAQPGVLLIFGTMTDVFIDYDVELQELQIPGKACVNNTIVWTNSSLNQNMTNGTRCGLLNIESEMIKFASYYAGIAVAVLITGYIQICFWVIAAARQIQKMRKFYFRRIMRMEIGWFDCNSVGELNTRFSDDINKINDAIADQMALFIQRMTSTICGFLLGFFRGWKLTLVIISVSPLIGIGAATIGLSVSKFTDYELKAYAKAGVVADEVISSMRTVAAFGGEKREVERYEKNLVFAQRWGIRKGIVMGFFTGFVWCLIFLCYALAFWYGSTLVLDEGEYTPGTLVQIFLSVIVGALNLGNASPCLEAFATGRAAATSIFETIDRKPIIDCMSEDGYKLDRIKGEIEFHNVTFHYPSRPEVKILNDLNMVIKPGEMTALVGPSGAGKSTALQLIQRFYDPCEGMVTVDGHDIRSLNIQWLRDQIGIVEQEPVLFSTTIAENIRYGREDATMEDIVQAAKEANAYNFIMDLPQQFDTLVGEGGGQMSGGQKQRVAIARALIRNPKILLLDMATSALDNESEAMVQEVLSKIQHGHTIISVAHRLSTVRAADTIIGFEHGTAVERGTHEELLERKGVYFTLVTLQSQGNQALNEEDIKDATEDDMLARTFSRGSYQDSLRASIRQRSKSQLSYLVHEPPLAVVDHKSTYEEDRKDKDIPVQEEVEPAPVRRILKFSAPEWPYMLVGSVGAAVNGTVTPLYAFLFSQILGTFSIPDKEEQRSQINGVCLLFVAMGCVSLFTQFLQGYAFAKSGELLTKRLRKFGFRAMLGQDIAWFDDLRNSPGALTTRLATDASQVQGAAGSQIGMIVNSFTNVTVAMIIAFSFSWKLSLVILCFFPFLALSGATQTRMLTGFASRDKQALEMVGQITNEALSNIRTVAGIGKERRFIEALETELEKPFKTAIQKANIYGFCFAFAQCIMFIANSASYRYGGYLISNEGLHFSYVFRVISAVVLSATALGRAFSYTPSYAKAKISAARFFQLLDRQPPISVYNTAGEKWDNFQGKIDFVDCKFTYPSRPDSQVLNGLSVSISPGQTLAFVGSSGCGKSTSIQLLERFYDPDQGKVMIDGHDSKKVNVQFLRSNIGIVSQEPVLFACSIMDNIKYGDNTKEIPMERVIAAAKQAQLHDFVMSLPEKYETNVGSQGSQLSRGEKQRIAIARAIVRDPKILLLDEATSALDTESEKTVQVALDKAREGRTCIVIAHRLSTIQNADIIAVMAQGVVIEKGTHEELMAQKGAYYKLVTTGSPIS

Sequence of Bile salt export pump (Rattus norvegicus, UniProt O70127) (O70127 whole entry): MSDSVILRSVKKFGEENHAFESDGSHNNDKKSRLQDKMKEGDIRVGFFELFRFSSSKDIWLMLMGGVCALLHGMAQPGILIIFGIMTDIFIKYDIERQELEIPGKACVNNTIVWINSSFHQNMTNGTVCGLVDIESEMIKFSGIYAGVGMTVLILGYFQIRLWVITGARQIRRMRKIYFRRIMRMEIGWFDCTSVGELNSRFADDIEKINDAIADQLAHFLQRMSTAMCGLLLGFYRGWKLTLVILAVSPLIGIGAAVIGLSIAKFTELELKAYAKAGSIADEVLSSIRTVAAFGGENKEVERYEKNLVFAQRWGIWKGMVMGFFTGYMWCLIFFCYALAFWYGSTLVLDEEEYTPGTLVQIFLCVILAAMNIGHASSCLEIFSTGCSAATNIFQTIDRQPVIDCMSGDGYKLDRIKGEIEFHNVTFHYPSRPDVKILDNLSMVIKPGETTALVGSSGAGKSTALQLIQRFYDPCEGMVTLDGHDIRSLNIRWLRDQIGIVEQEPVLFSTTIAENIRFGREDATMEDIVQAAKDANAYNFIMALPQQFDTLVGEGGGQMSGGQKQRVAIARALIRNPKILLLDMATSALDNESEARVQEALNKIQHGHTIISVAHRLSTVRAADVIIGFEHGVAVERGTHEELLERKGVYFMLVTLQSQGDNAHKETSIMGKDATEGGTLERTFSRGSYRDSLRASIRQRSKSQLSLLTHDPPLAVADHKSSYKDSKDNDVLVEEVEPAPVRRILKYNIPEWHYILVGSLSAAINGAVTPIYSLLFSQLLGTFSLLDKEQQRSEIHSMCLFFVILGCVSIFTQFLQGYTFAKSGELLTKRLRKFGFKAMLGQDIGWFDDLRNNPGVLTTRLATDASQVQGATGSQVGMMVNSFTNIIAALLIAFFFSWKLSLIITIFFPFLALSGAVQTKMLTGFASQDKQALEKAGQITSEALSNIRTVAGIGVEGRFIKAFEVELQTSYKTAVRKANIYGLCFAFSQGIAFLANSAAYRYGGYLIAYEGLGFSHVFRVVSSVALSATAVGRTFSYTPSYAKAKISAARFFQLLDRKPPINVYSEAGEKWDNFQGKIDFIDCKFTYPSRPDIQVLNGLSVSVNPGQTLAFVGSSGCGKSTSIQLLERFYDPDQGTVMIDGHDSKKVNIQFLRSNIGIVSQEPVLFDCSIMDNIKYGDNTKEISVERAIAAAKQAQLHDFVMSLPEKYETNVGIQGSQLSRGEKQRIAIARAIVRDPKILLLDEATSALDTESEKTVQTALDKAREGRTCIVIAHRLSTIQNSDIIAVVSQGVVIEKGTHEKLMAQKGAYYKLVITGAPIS

| SMILES | IC50 (Bile salt export pump [1]) | IC50 (Bile salt export pump [2]) |
| --- | --- | --- |
| CN(C)CCN(Cc1cccs1)c1ccccn1 | > 1000 µM | > 1000 µM |
| CC1=C(CC(=O)O)c2cc(F)ccc2/C1=C\c1ccc([S+](C)[O-])cc1 (configuration not stated) | 87.5 µM | 226 µM |
| CC(=O)Nc1ccc(O)cc1 [ACETAMINOPHEN] | > 1000 µM | > 1000 µM |
| COc1cc(C)c(/C=C/C(C)=C/C=C/C(C)=C/C(=O)O)c(C)c1C [ACITRETIN] | 19.7 µM | 18.2 µM |
| Nc1nc2c(ncn2COCCO)c(=O)[nH]1 [ACYCLOVIR] | > 1000 µM | > 1000 µM |
| CCCN(CCC)C(=O)Cc1c(-c2ccc(Cl)cc2)nc2ccc(Cl)cn12 [ALPIDEM] | 23 µM | 9.2 µM |
| CC1(C)S[C@@H]2[C@H](NC(=O)[C@H](N)c3ccc(O)cc3)C(=O)N2[C@H]1C(=O)O [AMOXICILLIN] | > 1000 µM | > 1000 µM |
| Cn1cnc([N+](=O)[O-])c1Sc1ncnc2nc[nH]c12 [AZATHIOPRINE] | > 1000 µM | – |
| CC(C(=O)O)c1ccc2oc(-c3ccc(Cl)cc3)nc2c1 (configuration not stated) [BENOXAPROFEN] | 99.1 µM | 175 µM |
| C[N+](C)(C)CC(=O)O [BETAINE] | > 1000 µM | > 1000 µM |
| CC(C)(Oc1ccc(CCNC(=O)c2ccc(Cl)cc2)cc1)C(=O)O [BEZAFIBRATE] | 391 µM | 232 µM |
| COc1ccccc1Oc1c(NS(=O)(=O)c2ccc(C(C)(C)C)cc2)nc(-c2ncccn2)nc1OCCO [BOSENTAN] | 30.6 µM | 38.1 µM |
| O=C1CC2(CCCC2)CC(=O)N1CCCCN1CCN(c2ncccn2)CC1 [BUSPIRONE] | 370 µM | 105 µM |
| NC(=O)N1c2ccccc2C=Cc2ccccc21 [CARBAMAZEPINE] | > 1000 µM | > 1000 µM |
| O=NN(CCCl)C(=O)NCCCl [CARMUSTINE] | > 1000 µM | > 1000 µM |
| CN(C)CCCN1c2ccccc2Sc2ccc(Cl)cc21 [CHLORPROMAZINE] | 122 µM | 148 µM |

| SMILES | IC50 (Bile salt export pump [1]) | IC50 (Bile salt export pump [2]) |
| --- | --- | --- |
| CCCNC(=O)NS(=O)(=O)c1ccc(Cl)cc1 [CHLORPROPAMIDE] | > 1000 µM | > 1000 µM |
| O=C(O)c1cc(-c2ccccc2)nc2ccccc12 [CINCHOPHEN] | 296 µM | 695 µM |
| CC(C)(Oc1ccc(C2CC2(Cl)Cl)cc1)C(=O)O (configuration not stated) [CIPROFIBRATE] | 190 µM | 573 µM |
| O=C(O)[C@H]1/C(=C/CO)O[C@@H]2CC(=O)N21 [CLAVULANIC ACID] | > 1000 µM | > 1000 µM |
| CCC(=O)O[C@]1(C(=O)CCl)[C@@H](C)C[C@H]2[C@@H]3CCC4=CC(=O)C=C[C@]4(C)[C@@]3(F)[C@@H](O)C[C@@]21C [CLOBETASOL PROPIONATE] | 35 µM | 8.5 µM |
| Cc1onc(-c2ccccc2Cl)c1C(=O)N[C@@H]1C(=O)N2[C@@H]1SC(C)(C)[C@@H]2C(=O)O [CLOXACILLIN] | 377 µM | 220 µM |
| CN1CCN(C2=Nc3cc(Cl)ccc3Nc3ccccc32)CC1 [CLOZAPINE] | 197 µM | 126 µM |
| O=C(O)c1cc(=O)c2c(OCC(O)COc3cccc4oc(C(=O)O)cc(=O)c34)cccc2o1 [CROMOLYN] | > 1000 µM | > 1000 µM |
| N[C@@H]1CON=C1O [CYCLOSERINE] | > 1000 µM | > 1000 µM |
| Nc1ccc(S(=O)(=O)c2ccc(N)cc2)cc1 [DAPSONE] | > 1000 µM | – |
| C[C@@H]1C[C@H]2[C@@H]3CCC4=CC(=O)C=C[C@]4(C)[C@@]3(F)[C@@H](O)C[C@]2(C)[C@@]1(O)C(=O)CO [DEXAMETHASONE] | 232 µM | 137 µM |
| NS(=O)(=O)c1cc(C(=O)O)c(NCc2ccco2)cc1Cl [FUROSEMIDE] | > 1000 µM | – |
| COc1ccc(Cl)cc1C(=O)NCCc1ccc(S(=O)(=O)NC(=O)NC2CCCCC2)cc1 [GLYBURIDE] | 2.8 µM | – |
| CC(=O)N1CCN(c2ccc(OCC3COC(Cn4ccnc4)(c4ccc(Cl)cc4Cl)O3)cc2)CC1 (configuration not stated) [KETOCONAZOLE] | 15.6 µM | – |
| O=C1CN(/N=C/c2ccc([N+](=O)[O-])o2)C(=O)N1 [NITROFURANTOIN] | > 1000 µM | – |
| CNC(=C[N+](=O)[O-])NCCSCc1ccc(CN(C)C)o1 [RANITIDINE] | > 1000 µM | – |
